Experimental data reported in patent US6358967B1, “Ergoline amine derivatives with blood pressure lowering effect” (priority 1998, dated 2002).

Columns and labels:
normotensive Wistar rats = experiment: Invasive blood pressure measurement in anesthetized rats, i.v. administration; format: in vivo, rat; conditions: 0.5 mg/kg i.v., Table 1.1; for Effect pressure/duration: duration: assessment class of duration; for Effect pressure/duration: pressure: assessment class of pressure fall; for Heart rate: change shown as arrow; for Heart rate / Duration: Wistar rats; for Duration: duration of blood pressure effect; for Diastol. pressure / Mean pressure / Systol. pressure: effect (fall) on arterial blood pressure, anesthetized Wistar rats
Method: Male Wistar rats with a body weight (BW) of 300-450 g were used as experimental animals. The rats are anesthetized immediately before the experiment with 50 mg/kg pentobarbital Na intraperitoneally (i.p.) or 70 mg/kg inactin i.v. PE tubes are tied into the carotid artery and femoral vein.
(§1) To maintain the blood pressure and to prevent formation of thrombi in the PE tubes of the blood vessels, each hour 2.5 ml of heparinized 0.9% strength NaCl solution are infused through the femoral vein and 1.2 ml through the carotid artery.
The arterial blood pressure is measured invasively using a PONEMAH hemodynamic analyzer (HSE, March, Germany). Via the tube in the carotid artery, the arterial blood pressure is mechanoelectrically converted in a Statham transducer (ISOTEC), amplified in a Plugsys (DBA module, type 660), digitized in an A/D converter and input into the PC memory over defined time intervals. The values in the memory are then treated with an adapted algorithm in order to establish the blood pressure parameters to be calculated for heart rate, systolic, diastolic and mean blood pressure.
(§2) The ergoline derivatives are administered i.v. through the femoral vein as 5 percent EtOH/NaCl (0.9%) solution, 1 ml/kg in a dosage of 0.5 mg/kg test substance.

[1] = tested on: normotensive Wistar rats after pretreatment with Ecolid; experiment: Blood pressure testing after blockade of autonomic nerve tracts with Ecolid; format: in vivo, rat; conditions: Table 2; for Effect pressure/duration: duration: assessment class of duration; for Effect pressure/duration: duration / Effect pressure/duration: pressure: after Ecolid; for Effect pressure/duration: duration / Effect pressure/duration: pressure / Heart rate / Duration: 0.5 mg/kg i.v.; for Effect pressure/duration: pressure: assessment class of pressure fall; for Heart rate: change shown as arrow; for Heart rate / Duration: rats pretreated with Ecolid; for Diastol. pressure / Mean pressure / Systol. pressure: effect (fall) on arterial blood pressure, Wistar rats pretreated with Ecolid 0.5 mg/kg i.v., test substance 0.5 mg/kg i.v.
Text: Ecolid is a ganglionic blocker which competitively blocks the postsynaptic cholinergic (nicotinergic) receptors in the autonomic ganglia. This interrupts neurotransmission in the ganglia in both the para-sympathetic and sympathetic regions of the autonomic nervous system. The consequence thereof is, inter alia, a fall in blood pressure. It is possible in this way to differentiate central and peripheral (i.e. direct points of action on the smooth muscles) effects.
The experimental animals used were male Wistar rats with a BW of 300-450 g. The rats are anesthetized immediately before the experiment with 70 mg/kg inactin i.v. PE tubes are tied into the carotid artery and femoral vein.
as §1
Before testing the ergoline derivatives, the experimental animals were treated with Ecolid (dose: 0.5 mg/kg, i.v.).
as §2
The time stated in the table corresponds to the period between administration of Ecolid and injection of the test substances.

Row | SMILES | Effect pressure/duration: duration (normotensive Wistar rats) | Effect pressure/duration: pressure (normotensive Wistar rats) | Heart rate (normotensive Wistar rats) | Duration (normotensive Wistar rats) | Diastol. pressure (normotensive Wistar rats) | Mean pressure (normotensive Wistar rats) | Systol. pressure (normotensive Wistar rats) | Effect pressure/duration: duration [1] | Effect pressure/duration: pressure [1] | Heart rate [1] | Diastol. pressure [1] | Mean pressure [1] | Systol. pressure [1] | Duration [1]
1 | CN1C[C@H](CN2CCC(=O)NC2=O)C[C@@H]2c3cccc4[nH]cc(c34)C[C@H]21 [Dihydro-1-[[6-methyl-ergolin-8b-yl]-methyl]2,4-(1H, 3H)-pyrimidinedione, reference compound] | ↓ (up to 10 min) | ↓↓↓ (>30%) | → | ca 10 min | 75.9% | 72.3% | 70.9% | →/→ (no effect to 5%) | →/→ (no effect to 5%) | → | 0% | 0% | 0% | 0 min
2 | CN1CC(CNC(=O)c2ccc(C(=O)NCc3cccc(CN)c3)cc2)CC2c3cccc4[nH]cc(c34)CC21.O=C(O)C(F)(F)F.O=C(O)C(F)(F)F (stereo not shown) [Substance 9703126] | ↓↓↓/↓↓↓ (>30 min) | ↓↓↓/↓↓↓ (>30%) | → | >60 min | 63.0% | 60.0% | 55.0% | ↓↓↓/↓↓↓ (> 30 min) | ↓↓↓/↓↓↓ (> 30%) | → | 48.7% | 43.7% | 36.4% | >120 min
